From US20140378422A1, “Combination of a RTK inhibitor with an anti-estrogen and use thereof for the treatment of cancer” (NOVARTIS AG, priority 2012, published 2014)

Columns and labels:
metastatic breast cancer = experiment: Clinical trial of Compound A as single agent in metastatic breast cancer patients; assay type: in vivo, human; details: preliminary results
CAMA-1 cell line = experiment: CAMA-1 cell proliferation, CellTiter-Glo Luminescent Cell Viability Assay, dose matrix analysed with Chalice Analyzer; assay type: cell-based; details: standard media, 72 hrs, FIG. 2A
Method: Cell lines were grown at 37° C. and 5% CO2.
24 hours following plating, 20 ul of each compound dilution series was transferred to plates containing the cells, resulting in compound concentration ranges from 50 nM to 4000 nM by 3-fold dilutions and a final DMSO concentration of 0.16%. The total volume in each well was 100 ul and each dose matrix was tested in triplicate on separate assay plates.
The average and standard deviation percent inhibition relative to DMSO treated control for triplicate compound-treated wells at each concentration of compounds was determined and up-loaded to Chalice Analyzer Database.

Structure (SMILES): CN1CCN(c2ccc3nc(-c4c(N)c5c(F)cccc5[nH]c4=O)[nH]c3c2)CC1 [Compound A, 4-amino-5-fluoro-3-[5-(4-methylpiperazin-1-yl)-1H-benzimidazol-2-yl]quinolin-2(1H)-one]
- unconfirmed partial responses (metastatic breast cancer; patients with FGF amplified disease (FGFR1 and/or FGFR2 and/or FGF3 amplification)): 3
- patients with stable disease for greater than 24 weeks and/or a partial response that was not confirmed at four weeks (metastatic breast cancer; patients with FGF amplified disease): five
- patients with stable disease greater than 24 weeks (metastatic breast cancer; patients with FGF-pathway non-amplified disease): 3

Structure (SMILES): C[C@]12CC[C@@H]3c4ccc(O)cc4C[C@@H](CCCCCCCCC[S+]([O-])CCCC(F)(F)C(F)(F)F)[C@H]3[C@@H]1CC[C@@H]2O (stereo partly drawn) [Fulvestrant, (7α,17β)-7-[9-[(4,4,5,5,5-Pentafluoropentyl)sulfinyl]nonyl]estra-1,3,5(10)-triene-3,17-diol]
- concentrations with a modest effect on proliferation as a single agent (CAMA-1 cell line): ≥ 0.049 µM
